These results are taken from patent US11491132B2, “Methods for treating thrombocytopenia” (Enzychem Lifesciences Corporation, priority 2014, dated 2022).

In assay [1] the target is T1, STAT1 (Homo sapiens, UniProt P42224).
T1 sequence (P42224 1-750): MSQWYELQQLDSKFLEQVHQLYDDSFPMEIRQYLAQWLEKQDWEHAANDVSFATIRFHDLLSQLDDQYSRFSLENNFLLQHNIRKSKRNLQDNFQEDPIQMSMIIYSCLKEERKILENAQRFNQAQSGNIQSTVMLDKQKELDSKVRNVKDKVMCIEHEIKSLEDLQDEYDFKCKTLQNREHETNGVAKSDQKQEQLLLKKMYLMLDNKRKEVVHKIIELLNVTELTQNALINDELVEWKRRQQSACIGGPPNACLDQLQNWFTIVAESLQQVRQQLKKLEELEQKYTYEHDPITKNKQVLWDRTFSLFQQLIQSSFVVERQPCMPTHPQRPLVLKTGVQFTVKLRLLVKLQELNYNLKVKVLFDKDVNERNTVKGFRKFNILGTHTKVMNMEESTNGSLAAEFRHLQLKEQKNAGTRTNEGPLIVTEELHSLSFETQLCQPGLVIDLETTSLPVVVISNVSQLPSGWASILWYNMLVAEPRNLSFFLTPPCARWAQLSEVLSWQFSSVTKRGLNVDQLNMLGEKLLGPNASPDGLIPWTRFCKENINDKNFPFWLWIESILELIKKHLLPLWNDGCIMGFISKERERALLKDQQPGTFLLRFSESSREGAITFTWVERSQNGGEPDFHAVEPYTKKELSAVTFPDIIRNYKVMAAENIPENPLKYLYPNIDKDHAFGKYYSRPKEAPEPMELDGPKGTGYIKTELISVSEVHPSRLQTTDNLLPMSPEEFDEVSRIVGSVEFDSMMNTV
Description: Dephosphorylation of STAT1 in U937 cell lysate, western blot. The assay is classed as cell-based. Further details: endogenous in cells; host or cells: U937. Particulars: U937 cells; PLAG 0.01 to 10 μg/ml; 15 min after 10 ng IFN-γ. The method, then: Dephosphorylation of STAT6 is examined using anti-phosphorylated STAT6 in U937, A549, and Jurkat cell lysates treated with PLAG concentration from 0.01 to 10 μg/ml. Phosphorylation of STAT6 is induced by treatment with 10 ng/ml of IL-4. Dephosphorylation of STAT1 is examined in the U937 cell lysate treated with PLAG (0.01 to 10 μg/ml). Phosphorylation of STAT1 is induced by 10 ng of IFN-γ treatment. Dephosphorylation of STAT1 and STAT6 is examined at 15 min after stimulation with IFN-γ and IL-4 respectively, in the PLAG pretreated cells. […] The transcriptional activity of STAT6 is decreased by the dephosphorylation of STAT6. […] No effect of PLAG on STAT1 phosphorylation is observed.

The target of assay [2] is T2, STAT6 (Homo sapiens, UniProt P42226).
T2 sequence (P42226 1-847): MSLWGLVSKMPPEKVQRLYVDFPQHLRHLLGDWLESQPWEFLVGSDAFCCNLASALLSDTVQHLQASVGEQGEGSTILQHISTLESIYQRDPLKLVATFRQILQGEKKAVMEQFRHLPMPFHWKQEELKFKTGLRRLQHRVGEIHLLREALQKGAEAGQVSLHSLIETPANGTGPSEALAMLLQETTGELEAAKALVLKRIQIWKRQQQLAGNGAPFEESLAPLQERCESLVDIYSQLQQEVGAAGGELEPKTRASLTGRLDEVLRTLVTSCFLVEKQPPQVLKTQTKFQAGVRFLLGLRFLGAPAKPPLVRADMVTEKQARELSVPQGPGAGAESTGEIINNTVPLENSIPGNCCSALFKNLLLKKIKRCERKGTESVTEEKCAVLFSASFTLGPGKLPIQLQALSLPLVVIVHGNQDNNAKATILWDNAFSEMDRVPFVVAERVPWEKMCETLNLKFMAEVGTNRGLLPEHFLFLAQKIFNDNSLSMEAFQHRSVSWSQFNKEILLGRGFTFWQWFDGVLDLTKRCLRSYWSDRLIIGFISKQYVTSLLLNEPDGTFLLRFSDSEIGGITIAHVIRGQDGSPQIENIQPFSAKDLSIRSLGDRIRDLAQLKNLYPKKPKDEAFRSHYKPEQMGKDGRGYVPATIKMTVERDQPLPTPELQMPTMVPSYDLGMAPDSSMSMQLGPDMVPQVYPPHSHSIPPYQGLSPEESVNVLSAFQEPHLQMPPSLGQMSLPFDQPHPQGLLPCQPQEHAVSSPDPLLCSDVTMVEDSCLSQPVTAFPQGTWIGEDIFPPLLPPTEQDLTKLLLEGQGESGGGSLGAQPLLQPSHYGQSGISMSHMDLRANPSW
Description: Reporter (luciferase) assay for STAT6 transcriptional activity in HepG2 cells. The format is cell-based. Further details: endogenous in cells; host or cells: HepG2 (gene transfected). Conditions: gene transfected HepG2, 10 ng IL-4, PLAG 0.01-10 μg/ml, 12 hours incubation. The method, then:
By using STAT6 inhibitor (S6I), it is confirmed that the reduction of Complement 3 in HepG2 cells (human hepatocyte cell line) is regulated by STAT6. […] It is also confirmed that PLAG has selective efficacy on STAT6 over STAT1. FIG. 1 presents graphs showing STAT1 and STAT6 transcriptional activity in the PLAG treated HepG2 cells. NC refers to the unstimulated control cell. For the STAT1 assay, gene transfected HepG2 (human hepatocyte cell line) is treated with 10 ng of IFN-γ and serially diluted PLAG is added (0.01 μg/ml, 0.1 μg/ml, 1 μg/ml, and 10 μg/ml as shown) to see its effect on gene expression in the stimulated cell. For the STAT6 assay, gene transfected HepG2 cells are treated with 10 ng of IL-4 and again serially diluted PLAG is added (0.01 μg/ml, 0.1 μg/ml, 1 μg/ml, and 10 μg/ml as shown) to see its effect on gene expression in the stimulated cell. The assay is carried out following 12 hours incubation of treated cells.

Assay [3] has as its system C3. Description: C3 in culture supernatant of HepG2 cells, ELISA. The assay is classed as cell-based, human. Particulars: PLAG 1 to 100 μg/ml or S6I 10 and 100 μg/ml, IL-4 and TNF-α 1 hr, 18 hr at 37° C. The method, then: The incubated HepG2 cell lines are treated with PLAG (1˜100 μg/ml), followed by IL-4 and TNF-α, reacted for 1 hour, incubated for 18 hours at 37° C. and the supernatant isolated. Quantitation of the amount of C3 in the cellular culture medium (supernatant) from HepG2 cells is performed by ELISA using a commercially available monoclonal antibody (mAb, R&D Systems) and the manufacture's protocol; the results are presented in FIG. 3. C3 is expressed spontaneously under in vitro culture condition using 10% FCS added to HepG2 cells incubated for 12 hr. The cells are treated with different doses of PLAG from 1 to 100 μg/ml (Panel A, Panel B) or 10 and 100 μg/ml of S6I (Panel C), reacted with IL-4 and TNF-α for 1 hr and then incubated for 18 hr at 37° C. Cellular viability is confirmed using the WST-1 assay (Panel A).

`CCCCC/C=C\C/C=C\CCCCCCCC(=O)OC(COC(C)=O)COC(=O)CCCCCCCCCCCCCCC` (racemic) [PLAG, 1-palmitoyl-2-linoleoyl-3-acetylglycerol]: in assay [1], the STAT1 phosphorylation entry was “No effect”. Also, in assay [2], the “STAT6 expression (transcriptional activity, reporter)” value is recorded as “significant, dose-dependent effect”. In addition, in assay [3], the “expression of C3 (amount in supernatant, ELISA)” value is on record as “decreased dose-dependently”.
